Laboratory results taken from PMC3763632, “Radiosynthesis and Radiotracer Properties of a 7-(2-[^18F]Fluoroethoxy)-6-methoxypyrrolidinylquinazoline for Imaging of Phosphodiesterase 10A with PET” (Pharmaceuticals, 2012).
“Also recorded” adds a separate entry of the source.

Legend:
[1] = Radioligand stability in vivo (metabolism in brain, plasma, urine); set-up: species or system CD-1 mice; conditions: mice
Description: The metabolic fate of [^18F]IV was investigated in brain, plasma and urine samples of CD1-mice at 30 and 60 min p.i. Proteins were precipitated with acetonitrile and extraction efficiencies of 96.4% for brain homogenate, 90.2% for plasma and 89.4% for urine were obtained, indicating sufficient recovery rates. The supernatants of each material were analyzed by radio-TLC and analytical radio-HPLC, whereof two representative chromatograms are given in Figure 4.
A single lipophilic metabolite was detected representing only 4.2% of total radioactivity at 60 min p.i. Therefore a major impairment of the imaging properties of [^18F]IV in vivo should not be expected. The same radiometabolite was detected in plasma with 23.5% and 22.0% of the total radioactivity at 30 and 60 min p.i., while the parent radiotracer [^18F]IV accounted for 69.5% and 70.1%, respectively.
In urine the metabolic profile is distinctly different. While the non-metabolized [^18F]IV and the single plasma- and brain-related radiometabolite accounted for only ~1% of the total radioactivity in urine, further radiometabolites were detected. The main three of them represent 11%, 12% and 44% of the total radioactivity. In contrast to brain and plasma samples, in urine free [^18F]fluoride could be detected, although at a low level of only ~5% of total radioactivity.
After injection via the tail vein of ~150 MBq of [^18F]IV in […] isotonic solution, mice were sacrificed at 30 or 60 min p.i. (n = 2 per time). Urine and blood samples were obtained, and whole brains were isolated and homogenized in 50 mM TRIS-HCl, pH 7.4/4 °C, in a borosilicate glass cylinder by 10 strokes of a PTFE plunge at a speed of 1,000 rpm using a Potter S Homogenizer (B. Braun Melsungen AG, Germany). Plasma samples were obtained by centrifugation of blood at 2,000 g and 4 °C for 10 min. Extractions of brain homogenate, plasma and urine samples were done by treatment with ice-old acetonitrile (1:5 v/v; 2 min vortex mixing, Vortex-Genie 2, Scientific Industries Inc., NY, USA; 10 min incubation on ice) and centrifugation (6,000 rpm, 4 °C, 5 min; EBA 12R, Andreas Hettich GmbH & Co. KG, Tuttlingen, Germany). The supernatants were stored separately. Sediments of brain and plasma samples were re-suspended in 500 μL ice-cold acetonitrile and extraction was repeated. Supernatants of each specimen were combined and slowly evaporated at 70 °C under nitrogen stream. […]

PDE10A = assay: Ex vivo autoradiography of mouse brain; type: in vivo, CD-1 mice; conditions: 30 min p.i. of 100 MBq
Description: To determine the regional distribution of [^18F]IV in the brain in vivo, we also performed ex vivo autoradiography. In CD-1 mice brain, heterogeneous distribution of radioactivity was noticed at 30 min after [^18F]IV injection (Figure 5), but the localization of radioligand did neither correlate with the spatial distribution of PDE10A in the brain known from immunohistochemical and in vivo PET studies nor with the pattern of [^18F]IV binding in the brain in vitro (Figure 3A). […] The discrepancy in the pattern of [^18F]IV distribution between in vitro and ex vivo autoradiography most probably indicates off-target binding of the radiotracer in combination with to low target affinity. While the dissociation rate underlying low affinity towards PDE10A allows a detection in the closed system of an in vitro study, the dynamic processes in vivo make binding of [^18F]IV towards PDE10A non-detectable. […]
Ex vivo autoradiography on the distribution of [^18F]IV in mouse brain (n = 1) was performed on sagittal brain sections obtained at 30 min after i.v. injection of 100 MBq of [^18F]IV. […] After exposition to ^18F-sensitive storage phosphor screens for 60 min, image plates were analyzed using a bioimaging analyzer system (see above).

With `COc1cc2c(N3CC[C@@H](Oc4cnc5ccccc5n4)C3)ncnc2cc1OCC[18F]` [[^18F]IV, (R)-7-(2-[^18F]Fluoroethoxy)-6-methoxy-4-(3-(quinoxalin-2-yloxy)pyrrolidin-1-yl)quinazoline] the “parent [18F]IV, share of total radioactivity” value (shortened to “parent [18F]IV, share”) ([1]; brain, 30 min p.i.) was 94.3%, the “parent [18F]IV, share” value ([1]; brain, 60 min p.i.) was 93.1% and the “parent [18F]IV, share” value ([1]; plasma, 30 min p.i.) was 69.5%. The “parent [18F]IV, share” value ([1]; plasma, 60 min p.i.) was 70.1% and the “accumulation in PDE10A-expressing brain regions (caudate putamen, olfactory tubercle, cerebellum)” value (PDE10A) was “no target specific accumulation; also recorded: free of significant accumulation”.
